Laboratory results taken from US10745382B2 (BRISTOL-MYERS SQUIBB COMPANY, priority 2015, dated 2020).
pIC50: −log10 of the molar value.

Target: T1, PD-1/PD-L1 (Homo sapiens, UniProt Q9NZQ7)
T1 construct: made in house; host or cells: HEK293T
Test: PD-1/PD-L1 Homogenous Time-Resolved Fluorescence (HTRF) binding assay
Settings: PD-L1-His 10 nM, PD-1-Ig 20 nM; value given as range class; read-out: Range or IC50
Method: The ability of the compounds of formula (I) to bind to PD-L1 was investigated using a PD-1/PD-L1 Homogenous Time-Resolved Fluorescence (HTRF) binding assay.
Homogenous Time-Resolved Fluorescence (HTRF) Binding Assay.
All binding studies were performed in an HTRF assay buffer consisting of dPBS supplemented with 0.1% […] bovine serum albumin and 0.05% (v/v) Tween-20. […] HTRF detection was achieved using europium crypate-labeled anti-Ig (1 nM final) and allophycocyanin (APC) labeled anti-His (20 nM final). Antibodies were diluted in HTRF detection buffer and 5 μl was dispensed on top of the binding reaction. […] Additional binding assays were established between the human proteins PD-1-Ig/PD-L2-His (20 & 5 nM, respectively) and CD80-His/PD-L1-Ig (100 & 10 nM, respectively). […]

T1 sequence (Q9NZQ7 with tags, fused parts or gaps): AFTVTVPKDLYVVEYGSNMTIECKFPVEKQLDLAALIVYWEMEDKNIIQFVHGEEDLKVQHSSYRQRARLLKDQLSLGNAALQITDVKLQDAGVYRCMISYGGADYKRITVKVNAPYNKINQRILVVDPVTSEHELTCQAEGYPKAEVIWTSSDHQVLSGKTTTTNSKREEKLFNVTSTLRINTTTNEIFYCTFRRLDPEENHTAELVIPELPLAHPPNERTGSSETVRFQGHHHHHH

Row | Structure (SMILES) | pIC50
1 | Cc1c(COc2cc(OCc3cncc(C#N)c3)c(CN3CC[C@H](O)C3)cc2Cl)cccc1-c1ccc2c(c1)OC(CCN1CC[C@H](O)C1)CO2 (mixture of isomers) [Example 1501, 5-((4-chloro-5-((3-(3-(2-((S)-3-hydroxypyrrolidin-1-yl)ethyl)-2,3-dihydrobenzo[b][1,4]dioxin-6-yl)-2-methylbenzyl)oxy)-2-(((S)-3-hydroxypyrrolidin-1-yl)methyl)phenoxy)methyl)nicotinonitrile] | 8.00 to 9.68
2 | Cc1c(COc2cc(OCc3cncc(C#N)c3)c(C=O)cc2Cl)cccc1-c1ccc2c(c1)OC(CCN1CC[C@H](O)C1)CO2 (mixture of isomers) [Example 1502, 5-((4-chloro-2-formyl-5-((3-(3-(2-((S)-3-hydroxypyrrolidin-1-yl)ethyl)-2,3-dihydrobenzo[b][1,4]dioxin-6-yl)-2-methylbenzyl)oxy)phenoxy)methyl)nicotinonitrile] | 7.00 to 8.00
3 | Cc1c(COc2cc(OCc3cncc(C#N)c3)c(CN3CCCC[C@H]3C(=O)O)cc2Cl)cccc1-c1ccc2c(c1)OC(CCN1CC[C@H](O)C1)CO2 (mixture of isomers) [Example 1503, (2S)-1-(5-chloro-2-((5-cyanopyridin-3-yl)methoxy)-4-((3-(3-(2-((S)-3-hydroxypyrrolidin-1-yl)ethyl)-2,3-dihydrobenzo[b][1,4]dioxin-6-yl)-2-methylbenzyl)oxy)benzyl)piperidine-2-carboxylic acid] | 7.00 to 8.00
4 | Cc1c(COc2cc(OCc3cncc(C#N)c3)c(CN3CCCC[C@H]3C(=O)O)cc2Cl)cccc1-c1ccc2c(c1)OC(CCN1CC[C@@H](O)C1)CO2 (mixture of isomers) [Example 1504, (2S)-1-(5-chloro-2-((5-cyanopyridin-3-yl)methoxy)-4-((3-(3-(2-((R)-3-hydroxypyrrolidin-1-yl)ethyl)-2,3-dihydrobenzo[b][1,4]dioxin-6-yl)-2-methylbenzyl)oxy)benzyl)piperidine-2-carboxylic acid] | 8.00 to 9.68
5 | Cc1c(COc2cc(OCc3cncc(S(C)(=O)=O)c3)c(CN3CCCC[C@H]3C(=O)O)cc2Cl)cccc1-c1ccc2c(c1)OC(CCN1CC[C@@H](O)C1)CO2 (mixture of isomers) [Example 1507, (2S)-1-(5-chloro-4-((3-(3-(2-((R)-3-hydroxypyrrolidin-1-yl)ethyl)-2,3-dihydrobenzo[b][1,4]dioxin-6-yl)-2-methylbenzyl)oxy)-2-((5-(methylsulfonyl)pyridin-3-yl)methoxy)benzyl)piperidine-2-carboxylic acid] | 8.00 to 9.68
6 | Cc1c(COc2cc(OCc3cncc(S(C)(=O)=O)c3)c(CN3CCCC[C@H]3C(=O)O)cc2Cl)cccc1-c1ccc2c(c1)OC(CCN1CCC(O)(CC(=O)O)C1)CO2 (mixture of isomers) [Example 1508, (2S)-1-(4-((3-(3-(2-(3-(carboxymethyl)-3-hydroxypyrrolidin-1-yl)ethyl)-2,3-dihydrobenzo[b][1,4]dioxin-6-yl)-2-methylbenzyl)oxy)-5-chloro-2-((5-(methylsulfonyl)pyridin-3-yl)methoxy)benzyl)piperidine-2-carboxylic acid] | 8.00 to 9.68
7 | Cc1c(COc2cc(OCc3cncc(S(C)(=O)=O)c3)c(CN3CCCC[C@H]3C(=O)O)cc2Cl)cccc1-c1cccc(OCCCN2CCC(O)(CC(=O)O)C2)c1C (mixture of isomers) [Example 1516, (2S)-1-(4-((3′-(3-(3-(carboxymethyl)-3-hydroxypyrrolidin-1-yl)propoxy)-2,2′-dimethyl-[1,1′-biphenyl]-3-yl)methoxy)-5-chloro-2-((5-(methylsulfonyl)pyridin-3-yl)methoxy)benzyl)piperidine-2-carboxylic acid] | 8.00 to 9.68
8 | Cc1c(COc2cc(OCc3cncc(C#N)c3)c(CN3CCCC[C@H]3C(=O)O)cc2Cl)cccc1-c1cccc(OCCCN2CCC(O)(CC(=O)O)C2)c1C (mixture of isomers) [Example 1519, (2S)-1-(4-((3′-(3-(3-(carboxymethyl)-3-hydroxypyrrolidin-1-yl)propoxy)-2,2′-dimethyl-[1,1′-biphenyl]-3-yl)methoxy)-5-chloro-2-((5-cyanopyridin-3-yl)methoxy)benzyl)piperidine-2-carboxylic acid] | 8.00 to 9.68
9 | CCOC(=O)CC1(O)CCN(CCC2COc3ccc(-c4cccc(COc5cc(OCc6cncc(S(C)(=O)=O)c6)c(CN6CCCC[C@H]6C(=O)OC)cc5Cl)c4C)cc3O2)C1 (mixture of isomers) [Example 1527, (2S)-methyl 1-(5-chloro-4-((3-(3-(2-(3-(2-ethoxy-2-oxoethyl)-3-hydroxypyrrolidin-1-yl)ethyl)-2,3-dihydrobenzo[b][1,4]dioxin-6-yl)-2-methylbenzyl)oxy)-2-((5-(methylsulfonyl)pyridin-3-yl)methoxy)benzyl)piperidine-2-carboxylate] | 7.00 to 8.00
10 | Cc1c(COc2cc(OCc3cncc(C#N)c3)c(CNC(C)(CO)C(=O)O)cc2Cl)cccc1-c1cccc(OCc2cncc(C#N)c2)c1 (racemic) [Example 3018, 2-((5-chloro-2-((5-cyanopyridin-3-yl)methoxy)-4-((3′-((5-cyanopyridin-3-yl)methoxy)-2-methyl-[1,1′-biphenyl]-3-yl)methoxy)benzyl)amino)-3-hydroxy-2-methylpropanoic Acid] | 8.00 to 9.68
11 | Cc1c(COc2cc(OCc3cncc(S(C)(=O)=O)c3)c(CN3CCCC[C@H]3C(=O)O)cc2Cl)cccc1-c1cccc(OCCCN2CCC(CO)(C(=O)O)C2)c1Cl (single isomer, unassigned) [Example 1062] | 8.00 to 9.68
12 | Cc1c(COc2cc(OCc3cncc(S(C)(=O)=O)c3)c(CNC(C)(CO)C(=O)O)cc2Cl)cccc1-c1cccc(OCCCN2CCC(CO)(C(=O)O)C2)c1Cl (single isomer, unassigned) [Example 1063] | 8.00 to 9.68
13 | Cc1c(COc2cc(OCc3cncc(S(C)(=O)=O)c3)c(CNC(C)(CO)C(=O)O)cc2Cl)cccc1-c1cccc(OCCCN2CCC(CO)(C(=O)O)C2)c1Cl (single isomer, unassigned) [Example 1064] | 8.00 to 9.68
14 | Cc1c(COc2cc(OCc3cncc(S(C)(=O)=O)c3)c(CN3CCCC[C@H]3C(=O)O)cc2Cl)cccc1-c1cccc(OCCCN2CCC(CO)(C(=O)O)C2)c1Cl (single isomer, unassigned) [Example 1065] | 8.00 to 9.68
15 | Cc1c(COc2cc(OCc3cncc(C#N)c3)c(CN3CCCC[C@H]3C(=O)O)cc2Cl)cccc1-c1cccc(OCCCN2CCC(CO)(C(=O)O)C2)c1C (single isomer, unassigned) [Example 1066] | 8.00 to 9.68
16 | Cc1c(COc2cc(OCc3cncc(C#N)c3)c(CNC(C)(CO)C(=O)O)cc2Cl)cccc1-c1cccc(OCCCN2CCC(CO)(C(=O)O)C2)c1C (single isomer, unassigned) [Example 1067] | 8.00 to 9.68
17 | Cc1c(COc2cc(OCc3cncc(C#N)c3)c(CN3CCCC[C@H]3C(=O)O)cc2Cl)cccc1-c1ccc2c(c1)OC(CCN1CC[C@@H](O)C1)CO2 (single isomer, unassigned) [Example 1505] | 8.00 to 9.68
18 | Cc1c(COc2cc(OCc3cncc(C#N)c3)c(CN3CCCC[C@H]3C(=O)O)cc2Cl)cccc1-c1ccc2c(c1)OC(CCN1CC[C@@H](O)C1)CO2 (single isomer, unassigned) [Example 1506] | 8.00 to 9.68
19 | Cc1c(COc2cc(OCc3cncc(C#N)c3)c(CNCCCN(C)C)cc2Cl)cccc1-c1cccc(OCCCN2CCC(O)C2)c1 (stereo in doubt) [Example 3001, (R)-5-((4-chloro-2-(((3-(dimethylamino)propyl)amino)methyl)-5-((3′-(3-(3-hydroxypyrrolidin-1-yl)propoxy)-2-methyl-[1,1′-biphenyl]-3-yl)methoxy)phenoxy)methyl)nicotinonitrile] | 8.00 to 9.68
20 | Cc1c(COc2cc(OCc3cncc(C#N)c3)c(CN[C@@H](CCCNC(=N)N)C(=O)O)cc2Cl)cccc1-c1cccc(OCCCN2CCC(O)C2)c1 (stereo in doubt) [Example 3002, (S)-2-((5-chloro-2-((5-cyanopyridin-3-yl)methoxy)-4-((3′-(3-((R)-3-hydroxypyrrolidin-1-yl)propoxy)-2-methyl-[1,1′-biphenyl]-3-yl)methoxy)benzyl)amino)-5-guanidinopentanoic Acid] | 8.00 to 9.68
21 | Cc1c(COc2cc(OCc3cncc(C#N)c3)c(CN[C@@](C)(CO)C(=O)O)cc2Cl)cccc1-c1cccc(OCCCN2CCC(O)C2)c1C (stereo in doubt) [Example 3003, (S)-2-((5-chloro-2-((5-cyanopyridin-3-yl)methoxy)-4-((3′-(3-((R)-3-hydroxypyrrolidin-1-yl)propoxy)-2,2′-dimethyl-[1,1′-biphenyl]-3-yl)methoxy)benzyl)amino)-3-hydroxy-2-methylpropanoic Acid] | 8.00 to 9.68
22 | Cc1c(COc2cc(OCc3cncc(C#N)c3)c(CN[C@@H](CO)C(=O)O)cc2Cl)cccc1-c1cccc(OCCCN2CCC(O)C2)c1C (stereo in doubt) [Example 3004, (S)-2-((5-chloro-2-((5-cyanopyridin-3-yl)methoxy)-4-((3′-(3-((R)-3-hydroxypyrrolidin-1-yl)propoxy)-2,2′-dimethyl-[1,1′-biphenyl]-3-yl)methoxy)benzyl)amino)-3-hydroxypropanoic Acid] | 8.00 to 9.68
23 | Cc1c(COc2cc(OCc3cncc(C#N)c3)c(CN[C@](C)(CO)C(=O)O)cc2Cl)cccc1-c1cccc(OCCCN2CCC(O)C2)c1C (stereo in doubt) [Example 3005, (R)-2-((5-chloro-2-((5-cyanopyridin-3-yl)methoxy)-4-((3′-(3-((R)-3-hydroxypyrrolidin-1-yl)propoxy)-2,2′-dimethyl-[1,1′-biphenyl]-3-yl)methoxy)benzyl)amino)-3-hydroxy-2-methylpropanoic Acid] | 8.00 to 9.68
